A short description of one data set: log P of melatonin. The data set is classed as physicochemical. From the text: (§1) In some embodiments, the one or more organic compounds includes cyclodextrin or a cyclodextrin derivative. In some embodiments, the one or more organic compounds includes hydroxypropyl-beta-cyclodextrin (HPBCD). In some embodiments, HPBCD is provided in a concentration ranging from about 0.49 to about 0.55 wt. %, including, for example, 0.50%, 0.51%, 0.52%, 0.53%, and 0.54%. […] The low solubility of melatonin can lead to limited absorption and bioavailability. With the addition of HPBCD, the solubility of melatonin is improved to about 10 mg/mL. In an aqueous solution in which HPBCD is present at a concentration ranging from about 0.49 to about 0.55 wt. %, HPBCD monomers have a hydrodynamic size of 10 nm and aggregates of HPBCD form up to 100 nm in diameter (measured via dynamic light scattering).

A short description of the next data set: physchem. The data set is classed as physicochemical.
Excerpt: as §1

The results in this text go back to patent US20230364175A1 (priority 2022, published 2023).

Each structure is given as a SMILES string. In brackets after ≈: the same amount, converted by molar mass. Like-named read-outs stand apart in the source and are kept apart here.

By logP is commonly meant a log measure of how a compound divides between an organic and an aqueous phase. As a reminder, the solubility is how much of the substance goes into solution per volume.

For the compound `COc1ccc2[nH]cc(CCNC(C)=O)c2c1` [melatonin], the log partition coefficient (logP) in “log P of melatonin” was 1.6. Further, the solubility in “physchem” is around 100 µg/mL (≈ 0.431 mM); in “physchem” (aqueous with cosolvent or surfactant or cyclodextrin), around 10000 µg/mL (≈ 43.1 mM).
